Source: patent EP2902035B1, “Cell-permeable peptide inhibitors of the JNK signal transduction pathway for use in the treatment of inflammatory eye diseases” (Xigen Inflammation Ltd., priority 2010, dated 2012)

Legend:
[1] = tested on: Endotoxin-Induced Uveitis (EIU); assay: Scoring of Endotoxin-Induced Uveitis (EIU) by slit lamp; type: in vivo, Lewis rats; details: scored at 24 hours on a scale from 0 to 5, mean ± SEM
Experimental: For intravenous (IV) injection, 100 µL of saline (NaCl 0.9%) or the JNK-inhibitor (poly-)peptide of SEQ ID NO: 11 (20 µg/kg in saline) were injected in a tail vein using a 25G-needle connected on a 1 mL syringe (Becton Dickinson, France). For intravitreous (IVT) injection, 5 µL of saline or the JNK-inhibitor (poly-)peptide of SEQ ID NO: 11 (0.2 µg/injection in saline) were injected in both eyes using a 30G disposable needle (BD-microfine syringe, nm Médical, Asnière, France). The IV dose of 20 µg/kg (i.e. 3.5 µg/rat in rats weighing 175g) was chosen according to studies showing that the JNK-inhibitor (poly-)peptide of SEQ ID NO: 11 is active at very low doses in other models. For intravitreous injections, the inventors used the minimal dose used in direct ear application after acute noise trauma in patients. This corresponds to 5% of the dose injected intravenously. […]
In a first set of experiment, 70 rats were randomized into 14 experimental groups with 5 rats per group. […] Clinical ocular inflammation was recorded only at 24 hours (see Scoring of Endotoxin-Induced Uveitis (EIU) section). […]
Animals were examined by slit lamp at 24 hours, the clinical peak of the disease in our experiments. The intensity of clinical ocular inflammation was scored on a scale from 0 to 5 for each eye as described previously 10: grade (0) indicates no inflammation; grade (1) indicates the presence of a minimal iris and conjunctival vasodilation but without the observation of flare or cells in the anterior chamber (AC); grade (2) indicates the presence of moderate iris and conjunctival vessel dilation but without evident flare or cells in the AC; grade (3) indicates the presence of intense iris vessels dilation, flare and less than 10 cells per slit lamp field in the AC; grade (4) indicates the presence of more severe clinical signs than grade 3, with more than 10 cells in the AC with or without the formation of a hypopion; grade (5) indicates the presence of intense inflammatory reaction, fibrin formation in the AC and total seclusion of the pupil. […]

iNOS positive cells = assay: Immunohistochemistry of iNOS on eye sections in EIU; type: in vivo, Lewis rats; details: IV or IVT injection compared to control eyes, 24h
Experimental: A second set of experiment was designed to evaluate the anti-inflammatory effect of the JNK-inhibitor (poly-)peptide of SEQ ID NO: 11 at the cellular and tissue level as well as the biodistribution of this molecule 24 hours after administration. Rats were randomized into 11 experimental groups. 6 groups of rats with uveitis: untreated uveitic rats, rats injected intravenously with NaCl or the JNK-inhibitor (poly-)peptide of SEQ ID NO: 11 and rats injected intravitreously with the vehicle, the JNK-inhibitor (poly-)peptide of SEQ ID NO: 11 or dexamethasone. The 5 additional groups without uveitis were: untreated healthy rats, rats treated by NaCl IV or the JNK-inhibitor (poly-)peptide of SEQ ID NO: 11 IV and rats injected IVT with NaCl or the JNK-inhibitor (poly-)peptide of SEQ ID NO: 11. Three eyes from separate rats were collected per group and used for immunohistochemistry. To characterize the cellular infiltrate, sections were double-stained with ED1 and iNOS. […] After staining nuclei with DAPI (Sigma-Aldrich, Saint-Quentin Fallavier, France), sections were mounted in PBS/Glycerol (1/1) and observed by fluorescence photomicroscopy (FXA, Microphot, Nikon, Melville, USA). […] ED1 positive cells and polymorphonuclear cells, identified by the shape of their nuclei stained with DAPI, were quantified on histological sections. […] Results were expressed as mean ± standard error of the mean (SEM).

With `CC(C)C[C@@H](NC(=O)[C@@H](Cc1ccccc1)NC(=O)[C@H]1CCCN1C(=O)[C@@H](CCC(N)=O)NC(=O)[C@H](NC(=O)[C@H]1CCCN1C(=O)[C@@H](CCCNC(=N)N)NC(=O)[C@@H](CO)NC(=O)[C@@H](CCC(N)=O)NC(=O)[C@H](N)CC(=O)O)C(C)C)C(=O)N[C@H](CC(N)=O)C(=O)N[C@H](CC(C)C)C(=O)N[C@@H](C(=O)N[C@@H](C(=O)N1CCC[C@@H]1C(=O)N[C@H](CCCNC(=N)N)C(=O)N[C@H](CCCCN)C(=O)N1CCC[C@@H]1C(=O)N[C@H](CCCNC(=N)N)C(=O)N1CCC[C@@H]1C(=O)N1CCC[C@@H]1C(=O)N[C@H](CCCNC(=N)N)C(=O)N[C@H](CCCNC(=N)N)C(=O)N[C@H](CCCNC(=N)N)C(=O)N[C@H](CCC(N)=O)C(=O)N[C@H](CCCNC(=N)N)C(=O)N[C@H](CCCNC(=N)N)C(=O)N[C@H](CCCCN)C(=O)N[C@H](CCCCN)C(=O)N[C@H](CCCNC(=N)N)C(=O)NCC(=O)O)[C@H](C)O)[C@H](C)O` [SEQ ID NO: 11] the EIU clinical scores ([1]; 20 µg/kg intravenous (IV) injection at LPS challenge) was 2.0 ± 0.1 A.U, the EIU clinical scores ([1]; intravitreous (IVT) administration at LPS challenge (SEQ ID NO: 11: 0.2 µg/injection)) was 2.2 ± 0.2 A.U and the “number of iNOS positive cells” value (iNOS positive cells) was “reduced”.
